The NIST ThermoML archive (doi:10.1016/j.tca.2011.02.027)
Numbers after ± are expanded uncertainties.

Legend:
[1] = molar heat capacity at constant pressure; xn = mol fraction of the nth substance listed; settings: 101.3 kPa, Liquid, Large sample (1 g) DSC
[2] = Crystal; DTA
[3] = molar heat capacity at constant pressure; settings: 101.33 kPa, Liquid, Large sample (1 g) DSC

CCCCn1cc[n+](C)c1.[Cl-] [1-butyl-3-methylimidazolium chloride] + O
molar heat capacity at constant pressure [J/K/mol], [1]
Settings	x1 = 0.2	x1 = 0.4	x1 = 0.6	x1 = 0.8	x1 = 1
303.2 K	125.6 ± 5.3	170.2 ± 7.2	218.6 ± 9.3	272.6 ± 12	–
308.2 K	126.7 ± 5.4	171.6 ± 7.3	220 ± 9.3	274.4 ± 12	–
313.2 K	127.7 ± 5.4	173 ± 7.3	221.8 ± 9.4	276.3 ± 12	–
318.2 K	128.6 ± 5.5	174.5 ± 7.4	223.9 ± 9.5	279.3 ± 12	–
323.2 K	129.9 ± 5.5	176.2 ± 7.5	225.9 ± 9.6	280.9 ± 12	–
328.2 K	130.9 ± 5.6	177.6 ± 7.5	228 ± 9.7	282.9 ± 12	–
333.2 K	131.8 ± 5.6	179 ± 7.6	230 ± 9.8	285.5 ± 12	–
338.2 K	133.1 ± 5.6	180.5 ± 7.7	232 ± 9.8	288.2 ± 12	–
343.2 K	133.8 ± 5.7	182.2 ± 7.7	234.1 ± 9.9	290.5 ± 12	337.2 ± 14
348.2 K	135.2 ± 5.7	183.6 ± 7.8	236.4 ± 10	293.1 ± 12	340.3 ± 14
353.2 K	136 ± 5.8	185.9 ± 7.9	238.6 ± 10	296.3 ± 13	343.3 ± 15
358.2 K	–	–	–	–	347.1 ± 15
363.2 K	–	–	–	–	350.6 ± 15
368.2 K	–	–	–	–	354.3 ± 15
373.2 K	–	–	–	–	357.6 ± 15
378.2 K	–	–	–	–	361 ± 15
383.2 K	–	–	–	–	364.3 ± 16
388.2 K	–	–	–	–	367.4 ± 16
393.2 K	–	–	–	–	370.7 ± 16
398.2 K	–	–	–	–	374 ± 16
403.2 K	–	–	–	–	376.8 ± 16

CCCCn1cc[n+](C)c1C.F[P-](F)(F)(F)(F)F [1-butyl-2,3-dimethylimidazolium hexafluorophosphate]
Settings	Normal melting temperature [°C]
[2]	38.00 ± 3

[3]
Settings	molar heat capacity at constant pressure [J/K/mol]
323.2 K	439.3 ± 19
328.2 K	442.9 ± 19
333.2 K	446.2 ± 19
338.2 K	449.4 ± 19
343.2 K	452.7 ± 19
348.2 K	457 ± 19
353.2 K	460.1 ± 20
358.2 K	464.4 ± 20
363.2 K	468 ± 20
368.2 K	471.6 ± 20
373.2 K	475.1 ± 20
378.2 K	478.9 ± 20
383.2 K	482.6 ± 20

CCCCn1cc[n+](C)c1.[Cl-] [1-butyl-3-methylimidazolium chloride]
Settings	Normal melting temperature [°C]
[2]	57.00 ± 1

[3]
Settings	molar heat capacity at constant pressure [J/K/mol]
343.2 K	337.2 ± 14
348.2 K	340.3 ± 14
353.2 K	343.3 ± 15
358.2 K	347.1 ± 15
363.2 K	350.6 ± 15
368.2 K	354.3 ± 15
373.2 K	357.6 ± 15
378.2 K	361 ± 15
383.2 K	364.3 ± 16
388.2 K	367.4 ± 16
393.2 K	370.7 ± 16
398.2 K	374 ± 16
403.2 K	376.8 ± 16

CCCCn1cc[n+](C)c1C.F[P-](F)(F)(F)(F)F [1-butyl-2,3-dimethylimidazolium hexafluorophosphate] + O
molar heat capacity at constant pressure [J/K/mol], [1]
Settings	x1 = 0.8	x1 = 0.85	x1 = 0.9	x1 = 0.95	x1 = 1
303.2 K	387 ± 16	396.4 ± 17	407.2 ± 17	418.3 ± 18	–
308.2 K	389.2 ± 16	398.4 ± 17	409.4 ± 17	420.5 ± 18	–
313.2 K	391.2 ± 17	400.5 ± 17	411.9 ± 18	423.3 ± 18	–
318.2 K	393.4 ± 17	402.7 ± 17	414.5 ± 18	426 ± 18	–
323.2 K	395.9 ± 17	405.5 ± 17	417.7 ± 18	429.4 ± 18	439.3 ± 19
328.2 K	398.9 ± 17	408.8 ± 17	421.3 ± 18	433.2 ± 18	442.9 ± 19
333.2 K	401.8 ± 17	411.9 ± 18	424.7 ± 18	436.7 ± 18	446.2 ± 19
338.2 K	404.5 ± 17	414.9 ± 18	428 ± 18	440.1 ± 19	449.4 ± 19
343.2 K	407.5 ± 17	417.9 ± 18	431.2 ± 18	443.5 ± 19	452.7 ± 19
348.2 K	411.1 ± 17	421.7 ± 18	435.2 ± 18	447.6 ± 19	457 ± 19
353.2 K	414.1 ± 18	424.8 ± 18	438.3 ± 19	450.9 ± 19	460.1 ± 20
358.2 K	–	–	–	–	464.4 ± 20
363.2 K	–	–	–	–	468 ± 20
368.2 K	–	–	–	–	471.6 ± 20
373.2 K	–	–	–	–	475.1 ± 20
378.2 K	–	–	–	–	478.9 ± 20
383.2 K	–	–	–	–	482.6 ± 20

CCCCn1cc[n+](C)c1C.F[B-](F)(F)F [1-butyl-2,3-dimethylimidazolium tetrafluoroborate]
Settings	Normal melting temperature [°C]
[2]	32.00 ± 1

[3]
Settings	molar heat capacity at constant pressure [J/K/mol]
313.2 K	397.3 ± 17
318.2 K	398.8 ± 17
323.2 K	400.6 ± 17
328.2 K	403.3 ± 17
333.2 K	405.4 ± 17
338.2 K	407.8 ± 17
343.2 K	410.6 ± 17
348.2 K	413.5 ± 18
353.2 K	416.5 ± 18
358.2 K	420.2 ± 18
363.2 K	423.6 ± 18
368.2 K	427.3 ± 18
373.2 K	430.6 ± 18
378.2 K	434.4 ± 18
383.2 K	436.3 ± 18

CCCCn1cc[n+](C)c1.[Br-] [1-butyl-3-methylimidazolium bromide]
Settings	Normal melting temperature [°C]
[2]	73.00 ± 2

[3]
Settings	molar heat capacity at constant pressure [J/K/mol]
353.2 K	334.8 ± 14
358.2 K	338.1 ± 14
363.2 K	341.1 ± 14
368.2 K	344.6 ± 15
373.2 K	347.5 ± 15
378.2 K	350.6 ± 15
383.2 K	354.1 ± 15
388.2 K	356.7 ± 15
393.2 K	359.9 ± 15
398.2 K	363.4 ± 15
403.2 K	366.4 ± 16

CCCCn1cc[n+](C)c1C.F[B-](F)(F)F [1-butyl-2,3-dimethylimidazolium tetrafluoroborate] + O
molar heat capacity at constant pressure [J/K/mol], [1]
Settings	x1 = 0.2	x1 = 0.4	x1 = 0.6	x1 = 0.8	x1 = 1
303.2 K	146.9 ± 6.2	217.5 ± 9.2	284.4 ± 12	343 ± 15	–
308.2 K	147.2 ± 6.2	218.2 ± 9.3	285.6 ± 12	344.2 ± 15	–
313.2 K	147.8 ± 6.3	219.3 ± 9.3	287 ± 12	346.3 ± 15	397.3 ± 17
318.2 K	148.4 ± 6.3	220.4 ± 9.4	288.6 ± 12	348.5 ± 15	398.8 ± 17
323.2 K	149.1 ± 6.3	221.7 ± 9.4	290.3 ± 12	351 ± 15	400.6 ± 17
328.2 K	149.8 ± 6.4	223.2 ± 9.5	292.1 ± 12	353.2 ± 15	403.3 ± 17
333.2 K	150.4 ± 6.4	224.1 ± 9.5	293.5 ± 12	355.6 ± 15	405.4 ± 17
338.2 K	151.1 ± 6.4	225.2 ± 9.6	295.7 ± 12	358.1 ± 15	407.8 ± 17
343.2 K	151.7 ± 6.4	226.4 ± 9.6	297.6 ± 13	360.8 ± 15	410.6 ± 17
348.2 K	152.4 ± 6.5	227.7 ± 9.7	299.5 ± 13	363.5 ± 15	413.5 ± 18
353.2 K	153.1 ± 6.5	229.2 ± 9.7	301.7 ± 13	366.3 ± 16	416.5 ± 18
358.2 K	–	–	–	–	420.2 ± 18
363.2 K	–	–	–	–	423.6 ± 18
368.2 K	–	–	–	–	427.3 ± 18
373.2 K	–	–	–	–	430.6 ± 18
378.2 K	–	–	–	–	434.4 ± 18
383.2 K	–	–	–	–	436.3 ± 18
